Ends that are not written are not given here.
Key:
[1] = system: fresh erythrocytes from the pigeons; assay: Hemolytic assay, bird (pigeon) erythrocytes; type: cell-based, Columba livia domestica; details: peptide 25 μM; bird blood cells; 30 min, 37°C
Protocol: Hemolytic activity of peptides against fresh erythrocytes from the ICR mice (Mus musculus), the lizards (Eremias multiocellata) or the pigeons (Columba livia domestica) was assayed according to the standard method (Zhu et al., [2012a]). An aliquot of freshly prepared venom was diluted with 0.9% NaCl to a protein concentration of ~5 mg/mL for use. The percentage of hemolysis is determined as (Apep-Ablank)/(Atot-Ablank) × 100, in which “A” represents absorbance measured at 570 nm. Ablank and Aprep were evaluated in the absence or presence of the venom or peptides. 100% hemolysis (Atot) was obtained in the presence of 1% Triton X-100.

[2] = system: Staphylococcus aureus J710; assay: Inhibition-zone assay (CL); type: cell-based; details: SA J710, N.A. = no activity at 0.8 nmol peptide each well
Method in brief: (§1)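 Bacteria (~2 × 10^6 cells/ml) were seeded in 0.8% soft-agar medium (LB, Nutrient Broth or GYM) and grown at 30 or 37°C. Three peptide doses were placed in separate 2 mm wells, and inhibition zones were measured after overnight incubation. CL was calculated from the slope and intercept of a d^2 versus log n plot.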

Candida albicans 4277 = assay: Inhibition-zone assay (CL); type: cell-based; details: CA 4277, 28°C, N.A. = no activity at 0.8 nmol peptide each well
[3] = system: Aspergillus nidulans Rcho15; assay: Inhibition-zone assay (CL); type: cell-based; details: ANID Rcho15, 28°C, N.A. = no activity at 0.8 nmol peptide each well
Candida albicans JX1016 = assay: Inhibition-zone assay (CL); type: cell-based; details: CA JX1016, 28°C, N.A. = no activity at 0.8 nmol peptide each well
Aspergillus nidulans A28 = assay: Inhibition-zone assay (CL); type: cell-based; details: ANID A28, 28°C, N.A. = no activity at 0.8 nmol peptide each well
[4] = system: Pseudomonas aeruginosa 11082616; assay: Inhibition-zone assay (CL); type: cell-based; details: PA 11082616, N.A. = no activity at 0.8 nmol peptide each well
Method in brief: as §1

Escherichia coli JM109 = assay: Inhibition-zone assay (CL); type: cell-based; details: EC JM109, N.A. = no activity at 0.8 nmol peptide each well
Method in brief: as §1

Candida albicans JX1195 = assay: Inhibition-zone assay (CL); type: cell-based; details: CA JX1195, 28°C, N.A. = no activity at 0.8 nmol peptide each well
Candida albicans 4257 = assay: Inhibition-zone assay (CL); type: cell-based; details: CA 4257, 28°C, N.A. = no activity at 0.8 nmol peptide each well
[5] = system: Pseudomonas aeruginosa 11092618; assay: Inhibition-zone assay (CL); type: cell-based; details: PA 11092618, N.A. = no activity at 0.8 nmol peptide each well
Method in brief: as §1

Pichia pastoris X33 = assay: Inhibition-zone assay (CL); type: cell-based; details: PP X33, 28°C, N.A. = no activity at 0.8 nmol peptide each well
Escherichia coli DH5α = assay: Inhibition-zone assay (CL); type: cell-based; details: EC DH5α, N.A. = no activity at 0.8 nmol peptide each well
Method in brief: as §1

Candida albicans SZ72 = assay: Inhibition-zone assay (CL); type: cell-based; details: CA SZ72, 28°C, N.A. = no activity at 0.8 nmol peptide each well
[6] = system: Salmonella enterica ATCC 14028; assay: Inhibition-zone assay (CL); type: cell-based; details: SE ATCC 14028, N.A. = no activity at 0.8 nmol peptide each well
Method in brief: as §1

[7] = system: Pseudomonas aeruginosa DH; assay: Inhibition-zone assay (CL); type: cell-based; details: PA DH, N.A. = no activity at 0.8 nmol peptide each well
Method in brief: as §1

Serum stability = type: in vitro ADME; details: fresh mouse serum, 37°C, read-out inhibition zone on Micrococcus luteus plates, triplicate
Protocol: To assess serum stability, peptides were dissolved in H2O or fresh mouse serum for the indicated times at 37°C and their residual activity was measured by the inhibition-zone assay (Hultmark, [1998]).

[8] = system: Pseudomonas aeruginosa 374; assay: Inhibition-zone assay (CL); type: cell-based; details: PA 374, N.A. = no activity at 0.8 nmol peptide each well
Method in brief: as §1

[9] = system: Pseudomonas aeruginosa FRD1; assay: Inhibition-zone assay (CL); type: cell-based; details: PA FRD1, N.A. = no activity at 0.8 nmol peptide each well
Method in brief: as §1

[10] = system: Serratia marcescens ATCC 14041; assay: Inhibition-zone assay (CL); type: cell-based; details: SMAR ATCC 14041, N.A. = no activity at 0.8 nmol peptide each well
Method in brief: as §1

Molecule	Lethal concentration (CL) [2] [µM]	Lethal concentration (CL) (Candida albicans 4277) [µM]	Lethal concentration (CL) (Candida albicans JX1016) [µM]	Lethal concentration (CL) [4] [µM]	Lethal concentration (CL) (Candida albicans 4257) [µM]	Lethal concentration (CL) [5] [µM]	Lethal concentration (CL) (Candida albicans SZ72) [µM]	Lethal concentration (CL) [6] [µM]	Lethal concentration (CL) [7] [µM]	also measured
FLFSLIPSAISGLISAFKGRRKRDLN-NH2 [MarMEL]	8.41	7.04	14.29	8.41	6.84	8.41	6.70	1.61	14.29	hemolysis [1]: nearly complete hemolysis; Lethal concentration (CL) [3]: 5.65 µM; Lethal concentration (CL) (Aspergillus nidulans A28): 7.14 µM; Lethal concentration (CL) (Escherichia coli JM109): 5.55 µM; Lethal concentration (CL) (Candida albicans JX1195): 5.65 µM; Lethal concentration (CL) (Pichia pastoris X33): 3.57 µM; Lethal concentration (CL) (Escherichia coli DH5α): 5.48 µM
FLFSLIPSAISGLINAFK-NH2 [MeuFSPL-2]	7.04	7.06	23.35	–	12.72	–	12.72	–	–	residual activity after incubation in mouse serum (Serum stability; 4 h, 0.72 nmol/well): entirely lost
FFGHLFKLATKIIPSLFQRKKE [MUC-22]	–	–	–	10.02	–	6.10	–	14.73	9.93	Lethal concentration (CL) (Pseudomonas solanacearum): 21.61 µM; Lethal concentration (CL) [8]: 16.86 µM; Lethal concentration (CL) [9]: 16.86 µM; Lethal concentration (CL) [10]: 58.93 µM
CC[C@H](C)[C@H](NC(=O)CN)C(=O)NCC(=O)N[C@@H](C)C(=O)N[C@H](C(=O)N[C@@H](CC(C)C)C(=O)N[C@@H](CCCCN)C(=O)N[C@H](C(=O)N[C@@H](CC(C)C)C(=O)N[C@H](C(=O)N[C@H](C(=O)NCC(=O)N[C@@H](CC(C)C)C(=O)N1CCC[C@H]1C(=O)N[C@@H](C)C(=O)N[C@@H](CC(C)C)C(=O)N[C@H](C(=O)N[C@@H](CO)C(=O)N[C@@H](Cc1c[nH]c2ccccc12)C(=O)N[C@H](C(=O)N[C@@H](CCCCN)C(=O)N[C@@H](CCCNC(=N)N)C(=O)N[C@@H](CCCCN)C(=O)N[C@@H](CCCNC(=N)N)C(=O)N[C@@H](CCC(N)=O)C(=O)N[C@@H](CCC(N)=O)C(N)=O)[C@@H](C)CC)[C@@H](C)CC)[C@@H](C)O)[C@@H](C)O)C(C)C)C(C)C [Melittin, reference compound]	8.98	–	–	–	–	–	–	24.74	–	Lethal concentration (CL) (Escherichia coli JM109): 23.53 µM; Lethal concentration (CL) (Escherichia coli DH5α): 18.20 µM; residual activity after incubation in mouse serum (Serum stability; 24 h, 0.72-1.44 nmol each well): only little or no activity remained
FFGHLFKLATKIIPSLFQ [MUC-18, reference compound]	5.16	–	–	31.40	–	31.40	–	35.64	–	–
FLFSLIPSAISGLISAFK-NH2 [MeuFSPL-1]	10.92	6.25	28.38	–	14.64	–	21.82	–	–	Lethal concentration (CL) (Aspergillus nidulans A28): 14.84 µM; Lethal concentration (CL) (Pichia pastoris X33): 8.21 µM
FFGHLFKLATKIIPSFFRRKNQ [MAC-22]	–	–	–	19.08	–	19.08	–	16.37	11.13	Lethal concentration (CL) (Pseudomonas solanacearum): 22.08 µM; Lethal concentration (CL) [8]: 18.75 µM; Lethal concentration (CL) [9]: 18.75 µM

From publication PMC5863496, “Mesobuthus Venom-Derived Antimicrobial Peptides Possess Intrinsic Multifunctionality and Differential Potential as Drugs” (Frontiers in Microbiology, 2018)
